According to the supplement of paper PMC11451515:

What was measured:
Conditions in all cases: 48 h
[1] = system: NOMO1; assay: AUC of viability dose-response curve (% viability x log10 dose units); higher = less sensitive
Procedure, shortened: (§1)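 Viability of medium-adapted leukemia cells was measured by CellTiter-Glo One luminescence after 48 h at 37°C with library compounds in DMSO. Doses were 11 threefold steps from 47 μM to 0.79 nM, in 1536-well plates at 500 or 1000 cells/well. Signals were normalised per plate to DMSO and cell-free wells and fitted with a four-parameter log-logistic model on log10 dose. Area under the curve was integrated by trapezoidal rule, with curves exceeding full viability scaled and failed quality-control curves removed.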

[2] = system: SEM cells; assay: as above
Procedure, shortened: as §1

[3] = system: P12-Ichikawa; assay: as above
Procedure, shortened: as §1

[4] = system: SEM cells; assay: cell viability relative to DMSO control; higher = less cytotoxic
Procedure, shortened: (§2)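 Viability is a per-plate percentage relative to DMSO wells, with cell-free wells as background. CellTiter-Glo One luminescence was read after 48 h at 37°C on 1536-well plates (5 μl) of NOMO1 or SEM (500 cells/well) or P12-Ichikawa (1000 cells/well) leukemia cells. The cells had been adapted for at least four passages in each medium and pin-dosed with library compounds in DMSO from 47 μM to 0.79 nM in 11 threefold steps.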

[5] = system: P12-Ichikawa; assay: as above
Procedure, shortened: as §2

[6] = system: NOMO1; assay: as above
Procedure, shortened: as §2

O=C(O)CC/C=C\CC[C@@H]1[C@@H](N2CCCCC2)[C@@H](O)C[C@@H]1OCc1ccc(-c2ccccc2)cc1
AUC of viability dose-response curve
Conditions	[1]	[2]	[3]
HPLM + 10% dialyzed FBS	433	461	461
RPMI 5 mM glucose + 10% FBS	441	456	457
RPMI 5 mM glucose + 10% dialyzed FBS	457	467	455

cell viability [%], HPLM + 10% dialyzed FBS
Conditions	[4]	[5]
0.000781 µM	117	124
0.00234 µM	131	131
0.00702 µM	117	125
0.0211 µM	136	126
0.0632 µM	129	116
0.19 µM	123	119
0.569 µM	127	131
1.71 µM	117	129
5.12 µM	111	107
15.4 µM	114	108
46.1 µM	112	109

CC(C)Oc1ccc(C(=O)N[C@H](CNC(=O)CN(C)C)Cc2ccc(-c3cn4cccc([C@H](C)O)c4n3)cc2)cc1Cl
AUC of viability dose-response curve
Conditions	[1]	[2]	[3]
HPLM + 10% dialyzed FBS	354	363	394
RPMI 5 mM glucose + 10% FBS	331	346	348
RPMI 5 mM glucose + 10% dialyzed FBS	344	357	369

cell viability [%]
Conditions	[4]	[5]	[6]
HPLM + 10% dialyzed FBS, 0.000781 µM	116	121	123
HPLM + 10% dialyzed FBS, 0.00234 µM	129	115	131
HPLM + 10% dialyzed FBS, 0.00702 µM	112	118	108
HPLM + 10% dialyzed FBS, 0.0211 µM	109	115	123
HPLM + 10% dialyzed FBS, 0.0632 µM	118	106	103
HPLM + 10% dialyzed FBS, 0.19 µM	118	101	99.8
HPLM + 10% dialyzed FBS, 0.569 µM	102	107	113
HPLM + 10% dialyzed FBS, 1.71 µM	44.5	78.1	32.6
HPLM + 10% dialyzed FBS, 5.12 µM	33.5	48.3	33.1
HPLM + 10% dialyzed FBS, 15.4 µM	39.9	45.8	23.6
HPLM + 10% dialyzed FBS, 46.1 µM	48.5	54.2	32.5
RPMI 5 mM glucose + 10% FBS, 0.000781 µM	–	117	104
RPMI 5 mM glucose + 10% FBS, 0.00234 µM	–	120	107
RPMI 5 mM glucose + 10% FBS, 0.00702 µM	–	118	112
RPMI 5 mM glucose + 10% FBS, 0.0211 µM	–	111	113
RPMI 5 mM glucose + 10% FBS, 0.0632 µM	–	115	113
RPMI 5 mM glucose + 10% FBS, 0.19 µM	–	110	98.5
RPMI 5 mM glucose + 10% FBS, 0.569 µM	–	103	87
RPMI 5 mM glucose + 10% FBS, 1.71 µM	–	41.2	24.8
RPMI 5 mM glucose + 10% FBS, 5.12 µM	–	25.3	19.7
RPMI 5 mM glucose + 10% FBS, 15.4 µM	–	23	14.6
RPMI 5 mM glucose + 10% FBS, 46.1 µM	–	26.6	21.6
RPMI 5 mM glucose + 10% dialyzed FBS, 0.000781 µM	117	108	107
RPMI 5 mM glucose + 10% dialyzed FBS, 0.00234 µM	119	117	124
RPMI 5 mM glucose + 10% dialyzed FBS, 0.00702 µM	117	112	112
RPMI 5 mM glucose + 10% dialyzed FBS, 0.0211 µM	125	110	125
RPMI 5 mM glucose + 10% dialyzed FBS, 0.0632 µM	111	102	113
RPMI 5 mM glucose + 10% dialyzed FBS, 0.19 µM	111	101	109
RPMI 5 mM glucose + 10% dialyzed FBS, 0.569 µM	111	97.9	100
RPMI 5 mM glucose + 10% dialyzed FBS, 1.71 µM	38.2	63	39.4
RPMI 5 mM glucose + 10% dialyzed FBS, 5.12 µM	34.4	38.4	25.6
RPMI 5 mM glucose + 10% dialyzed FBS, 15.4 µM	29.4	31.6	20.1
RPMI 5 mM glucose + 10% dialyzed FBS, 46.1 µM	35.5	32.7	24.8
